Reference: ChEMBL document CHEMBL2384990, “New Promising Compounds with in Vitro Nanomolar Activity against Trypanosoma cruzi” (ACS Med Chem Lett, 2013)
Active and inactive are the calls of the source. No cut-off for these calls is given here.

What was measured:
[1] = tested on: L6; assay: Cytotoxicity against rat L6 cells after 72 hrs by Alamar blue assay; type: cell-based; conditions: L6, 72 h
[2] = Selectivity index, ratio of IC50 for rat L6 cells to IC50 for Trypanosoma cruzi Tulahuen C2C4 amastigotes infected in rat L6 cells; type: toxicity, cell-based; conditions: read-out: Ratio IC50
[3] = tested on: Trypanosoma cruzi; assay: Antitrypanosomal activity against Trypanosoma cruzi Tulahuen C2C4 amastigotes infected in rat L6 cells after 96 hrs by photometric analysis; type: functional, organism-based; conditions: Tulahuen C2C4, L6, 96 h
[4] = target: Sterol 14-alpha demethylase (Trypanosoma cruzi (strain CL Brener)) (UniProt Q7Z1V1); assay: Inhibition of Trypanosoma cruzi CYP51
Sequence of Sterol 14-alpha demethylase (Trypanosoma cruzi (strain CL Brener)) (Q7Z1V1 whole entry, looked up): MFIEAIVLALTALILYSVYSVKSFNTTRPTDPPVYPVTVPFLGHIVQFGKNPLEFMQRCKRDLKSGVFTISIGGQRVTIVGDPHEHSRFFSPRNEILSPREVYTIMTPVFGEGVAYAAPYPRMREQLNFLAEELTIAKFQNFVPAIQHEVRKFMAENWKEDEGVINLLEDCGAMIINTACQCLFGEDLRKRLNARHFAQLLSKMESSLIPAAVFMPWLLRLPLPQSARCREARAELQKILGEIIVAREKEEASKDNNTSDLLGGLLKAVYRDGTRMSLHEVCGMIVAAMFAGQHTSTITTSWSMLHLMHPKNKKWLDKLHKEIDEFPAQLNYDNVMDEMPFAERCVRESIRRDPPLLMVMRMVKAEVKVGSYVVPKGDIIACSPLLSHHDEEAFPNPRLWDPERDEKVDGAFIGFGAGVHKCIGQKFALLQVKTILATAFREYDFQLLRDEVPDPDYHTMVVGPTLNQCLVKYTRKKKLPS

[5] = tested on: Plasmodium falciparum; assay: Antiplasmodial activity against erythrocytic stage of Plasmodium falciparum K1 after 48 hrs by [3H]-hypoxanthine incorporation assay; type: functional, organism-based
[6] = tested on: Leishmania donovani; assay: […] activity against Leishmania donovani MHOM-ET-67/L82 amastigotes after 72 hrs by Alamar blue assay; type: functional, organism-based; conditions: MHOM-ET-67/L82, 72 h
[7] = tested on: Trypanosoma brucei rhodesiense; assay: Antitrypanosomal activity against Trypanosoma brucei rhodesiense STIB 900 trypomastigotes after 72 hrs by Alamar blue assay; type: functional, organism-based; conditions: STIB 900, 72 h
[8] = Metabolic stability in human liver microsomes assessed as CYP-dependent metabolism after 60 mins by LC-UV-MS analysis; type: ADME, Microsome; conditions: 1 h
[9] = tested on: Trypanosoma cruzi; assay: Ratio of Benznidazole IC50 to compound IC50 for Trypanosoma cruzi Tulahuen C2C4 amastigotes infected in rat L6 cells; type: functional

| Structure (SMILES) | IC50 [1] [µM] | selectivity ratio [2] | IC50 [3] [µM] | inhibition [4] | IC50 [5] [µM] | IC50 [6] [µM] | IC50 [7] [µM] | Stability [8] | Ratio IC50 [9] |
| --- | --- | --- | --- | --- | --- | --- | --- | --- | --- |
| O=C(Nc1cc(Cl)nc(Cl)c1)O[C@@H](Cn1ccnc1)c1ccc(Cl)cc1 | 15.4 | 158 | 0.0972 |  |  |  |  |  |  |
| Cc1ncc([N+](=O)[O-])n1CCOC(=O)Nc1ccncc1Br | 222 | 4.6 | 48.4 | inactive | 60.2 | 85.1 | 139 |  |  |
| CC(C)c1ccc(NC(=O)O[C@@H](Cn2ccnc2)c2ccc(Cl)cc2)cc1 | 14 | 125 | 0.112 |  |  |  |  |  |  |
| O=C(Nc1ccnc(Cl)c1)OCCN1CCOCC1 | 238 | 1.3 | 175 | inactive | 79.8 | 190 | 230 |  |  |
| O=C(O[C@@H](Cn1ccnc1)c1ccccc1)c1ccc(-c2ccccc2)cc1 | 27.5 | 143 | 0.193 |  |  |  |  |  |  |
| CC(C)c1ccc(NC(=O)O[C@H](Cn2ccnc2)c2ccc(Cl)cc2)cc1 | 13.4 | 7470 | 0.0018 |  |  |  |  | Unstable | <=1000 |
| CC(C)c1ccc(NC(=O)OC(Cn2ccnc2)c2ccc(Cl)cc2)cc1 (racemic) | 13 | 2490 | 0.005 |  | 1.8 | 7 | 18.2 |  |  |
| O=C(OC(Cn1ccnc1)c1ccccc1)c1ccc(-c2ccccc2)cc1 (racemic) | 23.6 | 1580 | 0.014 |  | 2.2 | 5.4 | 42.1 |  |  |
| O=C(Cn1ccnc1[N+](=O)[O-])NCc1ccccc1 [BENZNIDAZOLE] |  |  | 1.67 |  |  |  |  |  |  |
| O=C(Nc1cc(Cl)nc(Cl)c1)OC(Cn1ccnc1)c1ccc(Cl)cc1 (racemic) | 27.2 | 749 | 0.036 |  | 1.5 | 11.4 | 34 |  |  |
| O=C(Nc1cc(Cl)nc(Cl)c1)OCCN1CCOCC1 | 79.3 | 0.6 | 133 | inactive | 23.1 | 123 | 117 |  |  |
| CCCCCCCCCCCCCCCCOP(=O)([O-])OCC[N+](C)(C)C [MILTEFOSINE] |  |  |  |  |  | 0.366 |  |  |  |
| O=C(O[C@H](Cn1ccnc1)c1ccccc1)c1ccc(-c2ccccc2)cc1 | 18.2 | 4800 | 0.0038 |  |  |  |  | Unstable | <=1000 |
| CC(C)c1ccc(NC(=O)OC(Cn2ccnc2)c2ccc(F)cc2)cc1 (racemic) | 16.8 | 3360 | 0.005 |  | 4.6 | 15 | 19.1 |  |  |
| COc1cc([C@@H]2c3cc4c(cc3[C@H](O)[C@H]3COC(=O)[C@H]23)OCO4)cc(OC)c1OC [PODOFILOX] | 0.001 |  |  |  |  |  |  |  |  |
| O=C(Nc1cc(Cl)nc(Cl)c1)O[C@H](Cn1ccnc1)c1ccc(Cl)cc1 | 31.6 | 1340 | 0.0236 |  |  |  |  |  | <=1000 |
| O=C(COc1ccccc1)OC(Cn1ccnc1)c1ccc(F)cc1 (racemic) | 182 | 7.5 | 24.4 |  | 36.7 | 17.3 | 294 |  |  |
